Test results: PubChem BioAssay AID1963437 (Molecular Pharmacology Branch, DTP, NCI, 2024)
“And” between values parts separate entries of the source, which are not always exact repeats. Equal values may be shown once.

System: OVCAR-8 complex spheroid, growth inhibition
Experiment: Anticancer human tumor OVCAR-8 cell line growth inhibition [Asc];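 further: spheroids exposed to agents for 7 days before readout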;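 on viability, T/C: percent viability relative to DMSO vehicle wells taken as 100%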
Settings: for viability, T/C: stronger effect = lower value
In short: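 Complex solid-tumor spheroids incorporating human endothelial and mesenchymal stem cells received single agents or combinations over half-log dilution ranges anchored to clinical Cmax.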

[1] = curve of first compound, second compound 0.0316 µM
[2] = curve of first compound, second compound 0.1 µM
[3] = curve of first compound, second compound 0.316 µM
[4] = curve of first compound, second compound 1 µM
[5] = second compound 0.0316 µM, first compound 0.00316 µM
[6] = second compound 0.0316 µM, first compound 0.01 µM
[7] = second compound 0.0316 µM, first compound 0.0316 µM
[8] = second compound 0.0316 µM, first compound 0.1 µM
[9] = second compound 0.0316 µM, first compound 0.316 µM
[10] = second compound 0.0316 µM, first compound 1 µM
[11] = second compound 0.1 µM, first compound 0.00316 µM
[12] = second compound 0.1 µM, first compound 0.01 µM
[13] = second compound 0.1 µM, first compound 0.0316 µM
[14] = second compound 0.1 µM, first compound 0.1 µM
[15] = second compound 0.1 µM, first compound 0.316 µM
[16] = second compound 0.1 µM, first compound 1 µM
[17] = second compound 0.316 µM, first compound 0.00316 µM
[18] = second compound 0.316 µM, first compound 0.01 µM
[19] = second compound 0.316 µM, first compound 0.0316 µM
[20] = second compound 0.316 µM, first compound 0.1 µM
[21] = second compound 0.316 µM, first compound 0.316 µM
[22] = second compound 0.316 µM, first compound 1 µM
[23] = second compound 1 µM, first compound 0.00316 µM
[24] = second compound 1 µM, first compound 0.01 µM
[25] = second compound 1 µM, first compound 0.0316 µM
[26] = second compound 1 µM, first compound 0.1 µM
[27] = second compound 1 µM, first compound 0.316 µM
[28] = second compound 1 µM, first compound 1 µM

CCN1CCN(Cc2ccc(Nc3ncc(F)c(-c4cc(F)c5nc(C)n(C(C)C)c5c4)n3)nc2)CC1 + Cc1c(S(C)(=O)=O)c(-c2cc(F)cc(N3CCN(c4ccc(NS(=O)(=O)c5ccc(NC(CCN6CCC(C(=O)OCCCP(=O)(O)O)CC6)CSc6ccccc6)c(S(=O)(=O)C(F)(F)F)c5)cc4)CC3)c2)c(-c2ccc(Cl)cc2)n1C(C)C gave an IC50 [1] of over 1000 nM, an IC50 [2] of over 1000 nM and an IC50 [3] of over 1000 nM. It also gave an IC50 [4] of over 1000 nM, an IC50 (curve of first compound, second compound 3.16 µM) of over 1000 nM and an IC50 (curve of first compound, second compound 10 µM) of over 1000 nM. It also gave a viability, T/C [5] of 102%, a viability, T/C [6] of 96.1% and a viability, T/C [7] of 95.6%. The viability, T/C [8] was 98.2%, the viability, T/C [9] was 112% and the viability, T/C [10] was 128%. The viability, T/C [11] was 90.3%, the viability, T/C [12] was 87.8% and the viability, T/C [13] was 90.4%. It also gave a viability, T/C [14] of 101%, a viability, T/C [15] of 112% and a viability, T/C [16] of 118%. For the same molecule, the viability, T/C [17] was 93.6%, the viability, T/C [18] was 97.5% and the viability, T/C [19] was 103%. It also gave a viability, T/C [20] of 107%, a viability, T/C [21] of 117% and a viability, T/C [22] of 121%. The viability, T/C [23] was 89.1%, the viability, T/C [24] was 105% and the viability, T/C [25] was 99.7%. For the same molecule, the viability, T/C [26] was 107%, the viability, T/C [27] was 97.5% and the viability, T/C [28] was 122%. The viability, T/C (second compound 3.16 µM, first compound 0.00316 µM) was 108%, the viability, T/C (second compound 3.16 µM, first compound 0.01 µM) was 92.3% and the viability, T/C (second compound 3.16 µM, first compound 0.0316 µM) was 103%. It also gave a viability, T/C (second compound 3.16 µM, first compound 0.1 µM) of 89.7%, a viability, T/C (second compound 3.16 µM, first compound 0.316 µM) of 106% and a viability, T/C (second compound 3.16 µM, first compound 1 µM) of 95.4%. The viability, T/C (second compound 10 µM, first compound 0.00316 µM) was 105%, the viability, T/C (second compound 10 µM, first compound 0.01 µM) was 111% and the viability, T/C (second compound 10 µM, first compound 0.0316 µM) was 90.2%. It also gave a viability, T/C (second compound 10 µM, first compound 0.1 µM) of 116%, a viability, T/C (second compound 10 µM, first compound 0.316 µM) of 93.1% and a viability, T/C (second compound 10 µM, first compound 1 µM) of 109%.
CCN1CCN(Cc2ccc(Nc3ncc(F)c(-c4cc(F)c5nc(C)n(C(C)C)c5c4)n3)nc2)CC1 + CCN1C(C(=O)NC23CCC(C(=O)O)(CC2)CC3)C(c2cccc(Cl)c2F)C2(C(=O)Nc3cc(Cl)ccc32)C12CCCCC2 was tested, and the IC50 (curve of first compound, second compound 0.00949 µM) was over 1000 nM, the IC50 (curve of first compound, second compound 0.03 µM) was over 1000 nM and the IC50 (curve of first compound, second compound 0.0949 µM) was over 1000 nM. It also gave an IC50 (curve of first compound, second compound 0.3 µM) of over 1000 nM, an IC50 (curve of first compound, second compound 0.949 µM) of over 1000 nM and an IC50 (curve of first compound, second compound 3 µM) of over 1000 nM. The viability, T/C (second compound 0.00949 µM, first compound 0.00316 µM) was 85.2%, the viability, T/C (second compound 0.00949 µM, first compound 0.01 µM) was 89.5% and the viability, T/C (second compound 0.00949 µM, first compound 0.0316 µM) was 80.1%. It also gave a viability, T/C (second compound 0.00949 µM, first compound 0.1 µM) of 100%, a viability, T/C (second compound 0.00949 µM, first compound 0.316 µM) of 90.2% and a viability, T/C (second compound 0.00949 µM, first compound 1 µM) of 107%. The viability, T/C (second compound 0.03 µM, first compound 0.00316 µM) was 98.1%, the viability, T/C (second compound 0.03 µM, first compound 0.01 µM) was 84.4% and the viability, T/C (second compound 0.03 µM, first compound 0.0316 µM) was 102%. It also gave a viability, T/C (second compound 0.03 µM, first compound 0.1 µM) of 89.4%, a viability, T/C (second compound 0.03 µM, first compound 0.316 µM) of 97.5% and a viability, T/C (second compound 0.03 µM, first compound 1 µM) of 117%. For the same molecule, the viability, T/C (second compound 0.0949 µM, first compound 0.00316 µM) was 79.9%, the viability, T/C (second compound 0.0949 µM, first compound 0.01 µM) was 92.2% and the viability, T/C (second compound 0.0949 µM, first compound 0.0316 µM) was 89.8%. The viability, T/C (second compound 0.0949 µM, first compound 0.1 µM) was 98.6%, the viability, T/C (second compound 0.0949 µM, first compound 0.316 µM) was 95.6% and the viability, T/C (second compound 0.0949 µM, first compound 1 µM) was 126%. For the same molecule, the viability, T/C (second compound 0.3 µM, first compound 0.00316 µM) was 89.7%, the viability, T/C (second compound 0.3 µM, first compound 0.01 µM) was 82.2% and the viability, T/C (second compound 0.3 µM, first compound 0.0316 µM) was 93.1%. For the same molecule, the viability, T/C (second compound 0.3 µM, first compound 0.1 µM) was 93.7%, the viability, T/C (second compound 0.3 µM, first compound 0.316 µM) was 114% and the viability, T/C (second compound 0.3 µM, first compound 1 µM) was 121%. The viability, T/C (second compound 0.949 µM, first compound 0.00316 µM) was 97.9%, the viability, T/C (second compound 0.949 µM, first compound 0.01 µM) was 86.6% and the viability, T/C (second compound 0.949 µM, first compound 0.0316 µM) was 87.5%. The viability, T/C (second compound 0.949 µM, first compound 0.1 µM) was 111%, the viability, T/C (second compound 0.949 µM, first compound 0.316 µM) was 90.6% and the viability, T/C (second compound 0.949 µM, first compound 1 µM) was 126%. For the same molecule, the viability, T/C (second compound 3 µM, first compound 0.00316 µM) was 98.5%, the viability, T/C (second compound 3 µM, first compound 0.01 µM) was 112% and the viability, T/C (second compound 3 µM, first compound 0.0316 µM) was 117%. The viability, T/C (second compound 3 µM, first compound 0.1 µM) was 118%, the viability, T/C (second compound 3 µM, first compound 0.316 µM) was 123% and the viability, T/C (second compound 3 µM, first compound 1 µM) was 119%.
In the case of Cc1nc(N2CCC3(CC2)COC(C)C3N)c(CO)nc1Sc1ccnc(N)c1Cl (stereo not drawn), the viability, T/C (compound 0.00949 µM) is reported as 111% and 101% and 103%, the viability, T/C (compound 0.03 µM) is reported as 121% and 112% and 102% and the viability, T/C (compound 0.0949 µM) is reported as 195% and 147% and 149%. For the same molecule, the viability, T/C (compound 0.3 µM) was 239% and 173% and 192%, the viability, T/C (compound 0.949 µM) was 261% and 212% and 243% and the viability, T/C (compound 3 µM) was 261% and 201% and 223%. The IC50 (curve of compound) was over 3000 nM.
For COc1c(OCCCN2CCOCC2)ccc2c3n(c(=NC(=O)c4cnc(N)nc4)nc12)CCN3 + CNC(C)C(=O)NC1CN(S(=O)(=O)c2cccc(S(=O)(=O)N3CCC4CCC(C(=O)NC(c5ccccc5)c5ccccc5)N4C(=O)C(NC(=O)C(C)NC)C3)c2)CCC2CCC(C(=O)NC(c3ccccc3)c3ccccc3)N2C1=O, the IC50 (curve of first compound, second compound 0.00316 µM) was over 1000 nM, the IC50 (curve of first compound, second compound 0.01 µM) was over 1000 nM and the IC50 [1] was 915 nM. The IC50 [2] was 730 nM, the IC50 [3] was 563 nM and the IC50 [4] was 326 nM. The viability, T/C (second compound 0.00316 µM, first compound 0.00316 µM) was 110%, the viability, T/C (second compound 0.00316 µM, first compound 0.01 µM) was 94.7% and the viability, T/C (second compound 0.00316 µM, first compound 0.0316 µM) was 131%. It also gave a viability, T/C (second compound 0.00316 µM, first compound 0.1 µM) of 137%, a viability, T/C (second compound 0.00316 µM, first compound 0.316 µM) of 126% and a viability, T/C (second compound 0.00316 µM, first compound 1 µM) of 73.1%. For the same molecule, the viability, T/C (second compound 0.01 µM, first compound 0.00316 µM) was 99.5%, the viability, T/C (second compound 0.01 µM, first compound 0.01 µM) was 105% and the viability, T/C (second compound 0.01 µM, first compound 0.0316 µM) was 113%. The viability, T/C (second compound 0.01 µM, first compound 0.1 µM) was 149%, the viability, T/C (second compound 0.01 µM, first compound 0.316 µM) was 129% and the viability, T/C (second compound 0.01 µM, first compound 1 µM) was 64.4%. For the same molecule, the viability, T/C [5] was 99.6%, the viability, T/C [6] was 92.7% and the viability, T/C [7] was 107%. The viability, T/C [8] was 133%, the viability, T/C [9] was 135% and the viability, T/C [10] was 44.7%. It also gave a viability, T/C [11] of 82.5%, a viability, T/C [12] of 92.9% and a viability, T/C [13] of 101%. It also gave a viability, T/C [14] of 115%, a viability, T/C [15] of 105% and a viability, T/C [16] of 31.6%. For the same molecule, the viability, T/C [17] was 87.5%, the viability, T/C [18] was 77.3% and the viability, T/C [19] was 98.7%. For the same molecule, the viability, T/C [20] was 113%, the viability, T/C [21] was 84.1% and the viability, T/C [22] was 16%. The viability, T/C [23] was 92.9%, the viability, T/C [24] was 90.4% and the viability, T/C [25] was 111%. It also gave a viability, T/C [26] of 92.5%, a viability, T/C [27] of 51.3% and a viability, T/C [28] of 4.42%.
Cc1c(S(C)(=O)=O)c(-c2cc(F)cc(N3CCN(c4ccc(NS(=O)(=O)c5ccc(NC(CCN6CCC(C(=O)OCCCP(=O)(O)O)CC6)CSc6ccccc6)c(S(=O)(=O)C(F)(F)F)c5)cc4)CC3)c2)c(-c2ccc(Cl)cc2)n1C(C)C (stereo not drawn) was tested, and the viability, T/C (compound 0.0316 µM) was 91.2% [middle of 7 runs], the viability, T/C (compound 0.1 µM) was 94% [middle of 7 runs] and the viability, T/C (compound 1 µM) was 98.1% [middle of 7 runs]. The viability, T/C (compound 3.16 µM) was 104% [middle of 7 runs] and the IC50 (compound alone, run of 11/07/2022) was over 10000 nM.
